Data on 4 compounds can be found in US20220249438A1, “CARBOCYANINE COMPOUNDS FOR TARGETING MITOCHONDRIA AND ERADICATING CANCER STEM CELLS” (LUNELLA BIOTECH, INC., priority 2019, published 2022).

Where two headings read alike, the source gives them in different places.

In data set [1] the test system is MCF7 cells. The data set is described as follows: 3D-mammosphere formation assay, MCF7. It is filed as cell-based, Human. An excerpt: (§1) In order to assess the effects of MTDR on CSC propagation, the mammosphere assay was used as a functional readout of “stemness” and 3D anchorage-independent growth. As CSCs are highly-resistant to many types of cell stress, they can undergo anchorage-independent propagation, under low-attachment conditions. […] These “mammospheres” are highly enriched in CSCs and progenitor-like cells, and highly resemble the morula stage of embryonic development, a solid ball of cells without a hollow lumen. Under these culture conditions of non-attachment, the majority of epithelioid cancer cells die, via an unusual form of apoptosis, known as anoikis.
(§2) As a consequence, the growth of 3D spheroids provides functional culture conditions to select for a population of epithelioid CSCs, with EMT properties. As such this provides an ideal assay for identifying small molecules that can target the anchorage-independent growth of CSCs.
(§3) 3D-Mammosphere Formation Assay: A single cell suspension was prepared using enzymatic (1× Trypsin-EDTA, Sigma Aldrich, cat. #T3924), and manual disaggregation (25 gauge needle). Five thousand cells were plated with in mammosphere medium (DMEM-F12/B27/20 ng/ml EGF/PenStrep), under non-adherent conditions, in six wells plates coated with 2-hydroxyethylmethacrylate (poly-HEMA, Sigma, cat. #P3932). […]

For data set [2] the following is noted: in vivo; cited from earlier work.
Data set [3] concerns MCF7 cells. The data set is described as follows: Metabolic flux analysis (Seahorse XFe96, OCR/ECAR), MCF7. The conditions noted are these: for ECAR levels / basal and maximal OCR, ATP production: adherent MCF7; for basal and maximal OCR, ATP production: 16 hours, versus vehicle-alone control. It is filed as cell-based, Human. As to the method:
(§4) FIGS. 4A-4D show the metabolic flux analysis results in MCF7 cells, FIGS. 5A-5D show the metabolic flux analysis results in MDA-MB-231 cells, and FIGS. 6A-6D show the metabolic flux analysis results in MDA-MB-468 cells.
(§5) In addition to metabolic flux analysis, glycolytic function was analyzed at different concentrations of MTDR. This included extracellular acidification rate (ECAR) measurements, glycolysis, glycolytic capacity, and glycolytic reserve. FIGS. 7A-7D show the results of glycolytic function in MCF7 cells, including ECAR, glycolysis, glycolytic capacity, and glycolytic reserve, respectively. FIGS. 8A-8D show the results of glycolytic function in MDA-MB-231 cells, including ECAR, glycolysis, glycolytic capacity, and glycolytic reserve, respectively. FIGS. 9A-9D show the results of glycolytic function in MDA-MB-468 cells, including ECAR, glycolysis, glycolytic capacity, and glycolytic reserve, respectively.
To examine the effects of HITC and DDI on mitochondrial respiration and aerobic glycolysis, adherent MCF7 were treated with each compound, and then OCR and ECAR were measured. […] After treatment, the mitochondrial oxygen consumption rate (OCR) was measured using the Seahorse XFe96 analyzer. Data is expressed as percentage of OCR versus control. All data was normalized for cell number. Statistical analysis was conducted using one-way ANOVA.
(§6) Metabolic Flux Analysis: Extracellular acidification rates and oxygen consumption rates were analyzed using the Seahorse XFe96 analyzer (Agilent/Seahorse Bioscience, USA). Cells were maintained in DMEM supplemented with 10% FBS (fetal bovine serum), 2 mM GlutaMAX, and 1% Pen-Strep. Forty-thousand breast cancer cells were seeded per well, into XFe96-well cell culture plates, and incubated at 37° C. in a 5% CO2 humidified atmosphere. After 24-48 hours, MCF7 cells were washed in pre-warmed XF assay media, as previously described. ECAR and OCR measurements were normalized for cell protein content, by the SRB colorimetric assay. Data sets were analyzed using XFe96 software and Excel software.

Data set [4] deals with MDA-MB-231 cells. The note with it: MDA-MB-231 mammosphere formation.
Excerpt: as §1, §2, §3

Data set [5] relates to MDA-MB-468 cells. The conditions noted are these: read-out: IC-50, 3D sphere formation.
Excerpt: as §1, §2, §3

Data set [6] deals with MDA-MB-231 cells. The conditions noted are these: MDA-MB-231 monolayer. As to the method: as §4, §5, §6
In data set [7] the test system is MDA-MB-468 cells. The note with it: MDA-MB-468 monolayer. How it is done: as §4, §5, §6
The test system of data set [8] is MCF7 cells. The conditions noted are these: read-out: IC-50, cell viability; MCF7 monolayer; Hoechst 33342; 1 nM to 1 μM; FIG. 10. How it is done:
(§7) A Hoechst-based viability assay was used to characterize the selectivity of MTDR for the preferential targeting of cancer cells. Briefly, MCF7, MDA-MB-231 and MDA-MB-468 cell monolayers were treated with MTDR, at concentrations ranging from 1 nM to 1 μM, for a period of one day. Cell viability was assessed using Hoechst 33342, a nuclear dye that stains DNA in live cells. The viability of normal human fibroblasts (hTERT-BJ1) treated with MTDR was also assessed in parallel. Quantitation was performed with a plate-reader.
(§8) MCF7, MDA-MB-231 and MDA-MB-468 cell monolayers were treated with MTDR for a period of 72 hours, and viability was assessed using Hoechst 33342, a nuclear dye that stains DNA in live cells. Effects of MTDR on the viability in normal human fibroblasts (hTERT-BJ1) were assessed in parallel.

Data set [9] relates to MDA-MB-231 cells. The conditions noted are these: read-out: IC-50, cell viability; MDA-MB-231 monolayer; Hoechst 33342; 1 nM to 1 μM; FIG. 10. As to the method:
as §7, §8

The test system of data set [10] is MDA-MB-468 cells. The note with it: read-out: IC-50, cell viability; MDA-MB-468 monolayer; Hoechst 33342; 1 nM to 1 μM; FIG. 10. As to the method: as §7, §8
Data set [11] relates to normal human fibroblasts (hTERT-BJ1). The note with it: for IC50: hTERT-BJ1, Hoechst 33342. How it is done: as §7, §8

`CCCN1/C(=C/C=C2\CCCC(/C=C/C3=[N+](CCC)c4ccccc4C3(C)C)=C2Cl)C(C)(C)c2ccccc21` [IR-780]: the “concentrations with significant inhibition of CSC propagation (3D-mammosphere formation)” value in the data set on MCF7 cells [1] (non-adherent MCF7, 1, 50, 100, 500, 1000 nM, five days) is “not effective”. Besides, the half-life in serum result in data set [2] is “minutes to hour”.
In the case of `CN1\C(=C/C=C/C=C/C=C/C2=[N+](C)c3ccccc3C2(C)C)C(C)(C)c2ccccc21` [HITC], in the data set on MCF7 cells [3], the ECAR levels entry was “increased significantly, at 500 and 1000 nM”; the “basal and maximal OCR, ATP production” value is “significantly inhibited”.
Regarding `CCN1/C(=C/C=C/C=C/c2ccc3ccccc3[n+]2CC)C=Cc2ccccc21` [DDI], in the data set on MCF7 cells [3], the ECAR levels entry is reported as “did not affect”; the “basal and maximal OCR, ATP production” value was “did not affect”.
Regarding `CN1C(=CC=CC=CC2=[N+](Cc3ccc(CCl)cc3)c3ccccc3C2(C)C)C(C)(C)c2ccccc21.[Cl-]` [MTDR, 1-{4-[(chloromethyl)phenyl]methyl}-3,3-dimethyl-2-[5-(1,3,3-trimethyl-1,3-dihydro-2H-indol-2-ylidene)penta-1,3-dien-1-yl]-3H-indolium chloride], the IC50 was less than 100 nM in the data set on MCF7 cells [1] (MCF7, MTDR 1 nM to 1,000 nM, 5 days, read-out: IC-50, 3D anchorage-independent growth (mammosphere formation)); roughly 50 nM with MDA-MB-468 cells [5]; 90.7 nM in the data set with MCF7 cells [8]; 399 nM in the data set with MDA-MB-231 cells [9]; 432 nM with MDA-MB-468 cells [10]; 468 nM in [11] (read-out: IC-50, cell viability, 1 nM to 1 μM, FIG. 10). The IC50 in [11] (read-out: IC-50, normal cell viability, 72 hours) is 1000 nM. For the same compound, in the data set with MDA-MB-231 cells [4], the “concentrations inhibiting anchorage-independent growth” value is given as “above 100 nM”. Moreover, the “concentration from which near complete inhibition of mitochondrial function and ATP production” value in the data set with MCF7 cells [3] (MCF7 monolayer, OCR) is on record as no less than 500 nM; with MDA-MB-231 cells [6] (OCR), no less than 500 nM; in the data set on MDA-MB-468 cells [7] (OCR), no less than 500 nM. The “effect on glycolysis (ECAR)” value is “no effect on glycolysis” in the data set with MCF7 cells [3] (MCF7 monolayer, up to 1 μM) and “no effect on glycolysis” in the data set on MDA-MB-468 cells [7] (up to 1 μM). Besides, the “concentration from which mild-to-moderate inhibition of glycolysis” value with MDA-MB-231 cells [6] (no significant effect up to 100 nM) was no less than 500 nM. Further, in [11] (viability, 72 hours), the “potency and selectivity for breast cancer cells relative to normal fibroblasts” value is 10 times.
